Measured values reported in patent US11708348B2, “Protease inhibitors for treatment of coronavirus infections” (The Scripps Research Institute, priority 2021, dated 2023).

tested on: SARS-CoV-2 strain USA-WA1/2020; test: microbe, parasite or virus in culture; assay type: cell-based; conditions: Severe acute respiratory syndrome coronavirus 2, HeLa-ACE2, 24 h, HeLa-ACE2 cells, SARS-CoV-2 infection, 24 h; class symbols; read-out: EC50, uM (Hela)

First: CC(C)C[C@H](NC(=O)c1ncc(-c2ccccc2)[nH]1)C(=O)N[C@@H](C[C@@H]1CCNC1=O)C(=O)COC(F)(F)F [Compound 224, N-((S)-4-methyl-1-oxo-1-(((S)-3-oxo-1-((S)-2-oxopyrrolidin-3-yl)-4-(trifluoromethoxy)butan-2-yl)amino)pentan-2-yl)-5-phenyl-1H-imidazole-2-carboxamide]
Second: CC(C)C[C@H](NC(=O)c1c[nH]c2ncccc12)C(=O)N[C@@H](C[C@@H]1CCNC1=O)C(=O)COC(F)(F)F [Compound 249, N-((S)-4-methyl-1-oxo-1-(((S)-3-oxo-1-((S)-2-oxopyrrolidin-3-yl)-4-(trifluoromethoxy)butan-2-yl)amino)pentan-2-yl)-1H-pyrrolo[2,3-b]pyridine-3-carboxamide]
The EC50 of the first is lower: < 0.05 µM for the first, 0.2 to 0.5 µM for the second.

First: CC(C)C[C@H](NC(=O)C(=O)NC(C)(C)C)C(=O)N[C@@H](C[C@@H]1CCNC1=O)C(=O)COC(F)(F)F [Compound 180, N1-(tert-butyl)-N2-((S)-4-methyl-1-oxo-1-(((S)-3-oxo-1-((S)-2-oxopyrrolidin-3-yl)-4-(trifluoromethoxy)butan-2-yl)amino)pentan-2-yl)oxalamide]
Second: CC(C)C[C@H](NC(=O)C(=O)NCC1CCCC1)C(=O)N[C@@H](C[C@@H]1CCNC1=O)C(=O)COc1c(F)c(F)cc(F)c1F [Compound 81, N^1-(cyclopentylmethyl)-N^2—((S)-4-methyl-1-oxo-1-(((S)-3-oxo-1-((S)-2-oxopyrrolidin-3-yl)-4-(2,3,5,6-tetrafluorophenoxy)butan-2-yl)amino)pentan-2-yl)oxalamide]
The EC50 of the first is lower: < 0.05 µM for the first, 0.05 to 0.2 µM for the second.

First: Cc1ccccc1NC(=O)C(=O)N[C@@H](CC1CCCCC1)C(=O)N[C@@H](C[C@@H]1CCNC1=O)C(=O)COc1c(F)c(F)cc(F)c1F [Compound 93, N1-((S)-3-cyclohexyl-1-oxo-1-(((S)-3-oxo-1-((S)-2-oxopyrrolidin-3-yl)-4-(2,3,5,6-tetrafluorophenoxy)butan-2-yl)amino)propan-2-yl)-N2-(o-tolyl)oxalamide]
Second: Cc1cc(C(=O)N[C@@H](CC(C)C)C(=O)N[C@@H](C[C@@H]2CCNC2=O)C(=O)COc2c(F)c(F)cc(F)c2F)no1 [Compound 114, 5-methyl-N-((S)-4-methyl-1-oxo-1-(((S)-3-oxo-1-((S)-2-oxopyrrolidin-3-yl)-4-(2,3,5,6-tetrafluorophenoxy)butan-2-yl)amino)pentan-2-yl)isoxazole-3-carboxamide]
The EC50 of the first is lower: < 0.05 µM for the first, 0.5 to 1 µM for the second. The first is the more potent here.

`O=C(N[C@@H](C[C@@H]1CCNC1=O)C(=O)COC(F)(F)F)C1[C@H]2CCC[C@H]2CN1C(=O)[C@H]1CCCO1` (stereo partly drawn) [Compound 299, (1S,3aR,6aS)-N-((S)-3-oxo-1-((S)-2-oxopyrrolidin-3-yl)-4-(trifluoromethoxy)butan-2-yl)-2-((R)-tetrahydrofuran-2-carbonyl)octahydro-cyclopenta[c]pyrrole-l-carboxamide] and `O=C1NCC[C@H]1C[C@H](NC(=O)[C@@H]1CC2(CC2)CN1C(=O)C(O)c1ccc(F)c(F)c1)C(=O)COC(F)(F)F` (stereo partly drawn) [Compound 400, (6S)-5-(2-(3,4-difluorophenyl)-2-hydroxyacetyl)-N-((S)-3-oxo-1-((S)-2-oxopyrrolidin-3-yl)-4-(trifluoromethoxy)butan-2-yl)-5-azaspiro[2.4]heptane-6-carboxamide] fall in the same range of EC50: 0.05 to 0.2 µM for the first, 0.05 to 0.2 µM for the second.

same assay, conditions: Severe acute respiratory syndrome coronavirus 2, HeLa-ACE2, 24 h, HeLa-ACE2 cells, SARS-CoV-2 infection, 24 h; given as bound; read-out: EC50, uM (Hela)

For `CO[C@@H]1C[C@@H](C(=O)N[C@@H](C[C@@H]2CCNC2=O)C(=O)COC(F)(F)F)N(C(=O)C(=O)NC(C)(C)C)C1` [Compound 537, (2S,4R)-1-(2-(tert-butylamino)-2-oxoacetyl)-4-methoxy-N-((S)-3-oxo-1-((S)-2-oxopyrrolidin-3-yl)-4-(trifluoromethoxy)butan-2-yl)pyrrolidine-2-carboxamide], the EC50 was > 1 µM.

same assay, conditions: Severe acute respiratory syndrome coronavirus 2, HeLa-ACE2, 24 h, HeLa-ACE2 cells, SARS-CoV-2 infection, 24 h; read-out: EC50, uM (Hela)

`[2H]C([2H])([2H])C(C(=O)N1CC2(CC2)C[C@H]1C(=O)N[C@@H](C[C@@H]1CCNC1=O)C(=O)COC(F)(F)F)C([2H])([2H])[2H]` [Compound 739, (S)-5-(2-(methyl-d3)propanoyl-3,3,3-d3)-N-((S)-3-oxo-1-((S)-2-oxopyrrolidin-3-yl)-4-(trifluoromethoxy)butan-2-yl)-5-azaspiro[2.4]heptane-6-carboxamide] and `C[C@@H](O)C(=O)N1CC2(CC2)C[C@H]1C(=O)N[C@@H](C[C@@H]1CCNC1=O)C(=O)COC(F)(F)F` [Compound 697, (S)-5-((R)-2-hydroxypropanoyl)-N-((S)-3-oxo-1-((S)-2-oxopyrrolidin-3-yl)-4-(trifluoromethoxy)butan-2-yl)-5-azaspiro[2.4]heptane-6-carboxamide] fall in the same range of EC50: 0.05 to 0.2 µM for the first, 0.05 to 0.2 µM for the second.

Compared with `CC(C)(C)NC(=O)C(=O)N1C[C@@H]2CC(F)(F)C[C@@H]2[C@H]1C(=O)N[C@@H](C[C@@H]1CCNC1=O)C(=O)COC(F)(F)F` [Compound 520, (1S,3aR,6aS)-2-(2-(tert-butylamino)-2-oxoacetyl)-5,5-difluoro-N-((S)-3-oxo-1-((S)-2-oxopyrrolidin-3-yl)-4-(trifluoromethoxy)butan-2-yl)octahydrocyclo-penta[c]pyrrole-1-carboxamide], `CC(C)(C)NC(=O)C(=O)N1C[C@@H]2C[C@@H]2[C@H]1C(=O)N[C@@H](C[C@@H]1CCNC1=O)C(=O)COC(F)(F)F` [Compound 493, (1S,2S,5R)-3-(2-(tert-butylamino)-2-oxoacetyl)-N-((S)-3-oxo-1-((S)-2-oxopyrrolidin-3-yl)-4-(trifluoromethoxy)butan-2-yl)-3-azabicyclo[3.1.0]-hexane-2-carboxamide] is higher in EC50: 0.05 to 0.2 µM for the first, 0.2 to 0.5 µM for the second.

First: CC1(CC(NC(=O)C(=O)NC2CC2)C(=O)N[C@@H](C[C@@H]2CCNC2=O)C(=O)COC(F)(F)F)CC1 (stereo partly drawn) [Compound 578, N1-cyclopropyl-N2-(3-(1-methylcyclopropyl)-1-oxo-1-(((S)-3-oxo-1-((S)-2-oxopyrrolidin-3-yl)-4-(trifluoromethoxy)butan-2-yl)amino)propan-2-yl)oxalamide]
Second: CC(C)C[C@@H](O)C(=O)N[C@@H](CC(C)C)C(=O)N[C@@H](C[C@@H]1CCNC1=O)C(=O)COC(F)(F)F [Compound 767, (R)-2-hydroxy-4-methyl-N-((S)-4-methyl-1-oxo-1-(((S)-3-oxo-1-((S)-2-oxopyrrolidin-3-yl)-4-(trifluoromethoxy)butan-2-yl)amino)pentan-2-yl)pentanamide]
The EC50 of the first is lower: < 0.05 µM for the first, 0.2 to 0.5 µM for the second. The first is the more potent here.

`CC(C)(C)NC(=O)C(=O)N1[C@@H]2C[C@@H]2C[C@H]1C(=O)N[C@@H](C[C@@H]1CCNC1=O)C(=O)COC(F)(F)F` [Compound 521] gave an EC50 of 0.2 to 0.5 µM.

same assay, conditions: Severe acute respiratory syndrome coronavirus 2, HeLa-ACE2, 24 h; […]; cells given as a bound; read-out: EC50, uM (Hela)

In the case of `CC(=O)N1CCC(NC(=O)C(=O)N[C@@H](CC(C)C)C(=O)N[C@@H](C[C@@H]2CCNC2=O)C(=O)COc2c(F)c(F)cc(F)c2F)CC1` [Compound 140, Nl-(l-acetylpiperidin-4-yl)-N2-((S)-4-methyl-1-oxo-1-(((S)-3-oxo-1-((S)-2-oxopyrrolidin-3-yl)-4-(2,3,5,6-tetrafluorophenoxy)butan-2-yl)amino)pentan-2-yl)oxalamide], the EC50 is reported as > 1 µM.

same assay, conditions: Severe acute respiratory syndrome coronavirus 2, HeLa-ACE2, 24 h; read-out: EC50, uM (Hela)

`CC(C)C[C@@H](O)C(=O)N1CCC[C@H]1C(=O)N[C@@H](C[C@@H]1CCNC1=O)C(=O)COC(F)(F)F` [Compound 696, (S)-1-((R)-2-hydroxy-4-methylpentanoyl)-N-((S)-3-oxo-1-((S)-2-oxopyrrolidin-3-yl)-4-(trifluoromethoxy)butan-2-yl)pyrrolidine-2-carboxamide] gave an EC50 of 0.05 to 0.2 µM.
